Test results published in article PMC11364104, “Discovery of SARS-CoV-2 papain-like protease (PL^pro) inhibitors with efficacy in a murine infection model” (Science Advances, 2024).
Where two headings read alike, the source gives them in different places.

Assays:
LogD = format: physicochemical
Dog pharmacokinetics = format: in vivo, Beagle dog; settings: for Vd: read-out: Vdss
Method: from Vital River (Beijing, China) and were typically 7-9 weeks of age at the time of dosing.
During the pharmacokinetic studies all animals were housed individually. Access to food and water was provided ad libitum (i.e., subjects were dosed in the fed state). In the instances where oral (po) dose was administered in the fed state, with ad libitum access to food and water. Compounds were administered intravenously (iv) via the tail vein (n = 2) dosed as a solution (1 mg/kg, 3 ml/kg) or via oral gavage as a solution (10 mg/kg, 10 ml/kg). Dosing solutions were prepared immediately before dosing. The composition of each dosing vehicle […]
Serial blood samples were collected via the jugular vein cannula at predetermined timepoints after dosing. Animals were monitored for pain or distress throughout the study, with at least daily monitoring during normal husbandry prior to study start. At the completion of the study, animals were euthanized by overdose of inhaled carbon dioxide. Blood samples were collected into tubes containing K2EDTA and stored on ice until centrifugation to obtain plasma, which was stored frozen at - 20 °C or lower.
Dog pharmacokinetic studies were done at Pfizer (Groton, CT). All procedures performed on beagle dogs were in accordance with regulations and established guidelines and were reviewed and approved by an Institutional Animal Care and Use Committee through an ethical review process. Male Beagle dogs were purchased from Marshall Bioresources (North Rose, NY); subjects 3 years of age were used in pharmacokinetics studies. For each study (n=2), compounds were dosed iv by cephalic vein as a solution (0.5 mg/kg, 1 mL/kg) or via oral gavage as a suspension (3 mg/kg, 5 mL/kg). In the instances where oral (po) dose was administered in the fed state, dogs were fed a couple hours before dosing. In the instances where the IV dose was administered in the fasted state, dogs were fasted over night and fed 4 hours post dose. Subjects were monitored for pain or distress throughout the study followed by at least daily monitoring while off study. The iv dosing vehicle was optimized such that the compounds were in solution and stable for at least 24 h. Serial blood samples were collected via the jugular vein at predefined time points post-dose. Blood samples were collected into K3EDTA treated collection tubes and were stored on wet ice prior to being centrifuged to obtain plasma, which was stored frozen at - 20 °C or lower.
Monkey pharmacokinetic studies were conducted at Pfizer (Groton, CT). All procedures performed on Cynomolgus monkeys were in accordance with regulations and established guidelines and were reviewed and approved by an Institutional Animal Care and Use Committee through an ethical review process. Male Cynomolgus monkeys were purchased from Envigo Global Services (Indianapolis, IN); subjects 5-8 years of age were used in pharmacokinetic studies. For each study (n=2), compounds were dosed iv by the cephalic vein (typically 1 mg/kg, 2 ml/kg). Subjects were monitored for pain or distress throughout the study followed by at least daily monitoring while off study. The iv dosing vehicle was optimized such that the compounds were in solution and stable for at least 24 h.
Serial blood samples were collected via the femoral vein at predefined time points post-dose. Blood samples were collected into K3EDTA treated collection tubes and were stored on wet ice prior to being centrifuged to obtain plasma, which was stored frozen at -20 °C or […]
LC-MS/MS Analysis of Plasma Samples
Plasma samples were processed using protein precipitation with 50:50 acetonitrile: methanol containing terfenadine (5 ng/ml) as an internal standard followed by quantitation against a standard curve (0.1-1000 ng/ml) prepared in blank plasma. Quantitation of analyte in plasma samples was done using LC-MS/MS. Standard and quality control samples, prepared in blank plasma were extracted in the same manner as the in-life samples. Briefly, a Waters […]

hCoV-229E_PLpro2 = hCoV-229E_PLpro2 (Human coronavirus 229E, UniProt P0C6X1); experiment: biochemical; set-up: species or system 229E-CoV
Sequence of hCoV-229E_PLpro2 (P0C6X1 1663-1914): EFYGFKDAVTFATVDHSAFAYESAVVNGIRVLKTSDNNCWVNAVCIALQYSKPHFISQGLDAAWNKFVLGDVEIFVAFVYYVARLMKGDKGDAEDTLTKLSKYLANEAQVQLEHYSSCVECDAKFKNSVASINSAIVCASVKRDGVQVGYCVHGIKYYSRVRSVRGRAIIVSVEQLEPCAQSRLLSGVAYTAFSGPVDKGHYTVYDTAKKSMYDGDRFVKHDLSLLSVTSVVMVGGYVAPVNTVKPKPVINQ

MERS_Plpro = MERS_Plpro (Middle East respiratory syndrome-related coronavirus, UniProt K9N7C7); experiment: biochemical; set-up: species or system MERS-CoV
Sequence of MERS_Plpro (K9N7C7 1552-1823 limits assumed): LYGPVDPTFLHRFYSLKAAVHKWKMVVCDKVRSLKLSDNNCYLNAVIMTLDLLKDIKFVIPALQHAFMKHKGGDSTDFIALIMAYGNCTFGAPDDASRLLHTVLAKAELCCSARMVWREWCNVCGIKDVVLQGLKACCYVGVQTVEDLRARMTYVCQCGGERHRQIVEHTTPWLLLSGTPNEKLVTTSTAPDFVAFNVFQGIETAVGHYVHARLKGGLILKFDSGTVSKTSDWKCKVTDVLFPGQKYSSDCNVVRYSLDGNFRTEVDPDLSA

Human Cathepsin S = target: T1, Human Cathepsin S (Homo sapiens, UniProt P25774); experiment: biochemical
T1 construct: assay run at Reaction Biology Corporation

Human Cathepsin F = target: T2, Human Cathepsin F (Homo sapiens, UniProt Q9UBX1); experiment: biochemical
T2 construct: assay run at BPS Bioscience
T2 sequence (Q9UBX1 271-484): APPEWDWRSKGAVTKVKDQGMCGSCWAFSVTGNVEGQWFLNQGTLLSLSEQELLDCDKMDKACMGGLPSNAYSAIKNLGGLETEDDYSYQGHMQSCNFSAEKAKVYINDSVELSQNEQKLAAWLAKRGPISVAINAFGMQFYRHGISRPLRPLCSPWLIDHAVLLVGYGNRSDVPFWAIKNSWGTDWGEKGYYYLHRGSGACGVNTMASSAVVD

[1] = target: Human Immunodeficiency Virus-1 protease (Human immunodeficiency virus type 1 group M subtype B, UniProt P04585); experiment: biochemical
Human Elastase = target: T3, Human Elastase (Homo sapiens, UniProt P08246); experiment: biochemical
T3 construct: Reaction Biology Corporation (ran the assay as a service)
T3 sequence (P08246 30-267): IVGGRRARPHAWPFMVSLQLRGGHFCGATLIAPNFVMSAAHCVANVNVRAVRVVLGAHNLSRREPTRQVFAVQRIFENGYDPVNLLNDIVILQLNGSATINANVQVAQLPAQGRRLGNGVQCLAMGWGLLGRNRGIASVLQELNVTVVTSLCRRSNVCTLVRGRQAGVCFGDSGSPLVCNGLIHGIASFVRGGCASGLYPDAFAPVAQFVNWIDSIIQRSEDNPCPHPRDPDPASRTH

Acetylcholinesterase = target: T4, Acetylcholinesterase (Homo sapiens, UniProt P22303); experiment: CEREP enzyme inhibition; format: biochemical
T4 construct: purchased Eurofins Cerep

Abl Kinase = target: T5, Abl Kinase (Homo sapiens, UniProt P00519); experiment: CEREP kinase inhibition; format: biochemical
T5 construct: purchased Eurofins Cerep

Aurora A Kinase = target: T6, Aurora A Kinase (Homo sapiens, UniProt O14965); experiment: CEREP kinase inhibition; format: biochemical
T6 construct: purchased Eurofins Cerep

EGFR Kinase = target: T7, EGFR Kinase (Homo sapiens, UniProt P00533); experiment: CEREP kinase inhibition; format: biochemical
T7 construct: purchased Eurofins Cerep
T7 sequence (P00533 25-1210): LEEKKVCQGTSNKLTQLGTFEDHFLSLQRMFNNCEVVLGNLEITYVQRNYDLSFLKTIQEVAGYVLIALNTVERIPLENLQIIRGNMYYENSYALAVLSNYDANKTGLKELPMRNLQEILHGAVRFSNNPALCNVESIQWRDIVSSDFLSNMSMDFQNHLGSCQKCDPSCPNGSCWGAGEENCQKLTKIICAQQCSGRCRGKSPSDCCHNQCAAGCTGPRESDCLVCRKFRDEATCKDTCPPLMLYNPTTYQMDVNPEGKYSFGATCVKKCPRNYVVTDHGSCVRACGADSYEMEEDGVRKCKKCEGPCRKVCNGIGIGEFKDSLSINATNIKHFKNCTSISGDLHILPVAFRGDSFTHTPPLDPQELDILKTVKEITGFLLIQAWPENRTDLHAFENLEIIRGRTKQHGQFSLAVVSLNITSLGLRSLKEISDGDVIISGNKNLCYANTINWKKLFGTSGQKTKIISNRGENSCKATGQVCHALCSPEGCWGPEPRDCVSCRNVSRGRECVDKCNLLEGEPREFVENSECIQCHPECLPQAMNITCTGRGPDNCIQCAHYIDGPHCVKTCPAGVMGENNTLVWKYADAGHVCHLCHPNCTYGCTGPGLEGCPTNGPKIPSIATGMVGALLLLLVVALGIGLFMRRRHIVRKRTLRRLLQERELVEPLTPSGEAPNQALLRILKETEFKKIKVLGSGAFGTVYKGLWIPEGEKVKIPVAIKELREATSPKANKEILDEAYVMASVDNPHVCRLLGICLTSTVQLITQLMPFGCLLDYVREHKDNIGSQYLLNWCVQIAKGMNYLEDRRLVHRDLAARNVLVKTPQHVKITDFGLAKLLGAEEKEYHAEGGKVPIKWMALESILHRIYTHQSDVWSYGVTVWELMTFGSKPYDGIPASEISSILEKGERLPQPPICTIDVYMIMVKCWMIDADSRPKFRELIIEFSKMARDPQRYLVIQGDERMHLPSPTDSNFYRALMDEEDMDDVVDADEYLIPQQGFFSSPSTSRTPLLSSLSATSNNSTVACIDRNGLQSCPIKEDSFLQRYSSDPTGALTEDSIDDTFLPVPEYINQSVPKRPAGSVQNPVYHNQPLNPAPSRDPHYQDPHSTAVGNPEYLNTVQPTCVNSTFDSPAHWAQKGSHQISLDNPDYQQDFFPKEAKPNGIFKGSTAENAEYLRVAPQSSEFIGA

P38 MAP Kinase = target: T8, P38 MAP Kinase (Homo sapiens, UniProt Q16539); experiment: CEREP kinase inhibition; format: biochemical
T8 construct: purchased Eurofins Cerep
T8 sequence (Q16539 whole entry): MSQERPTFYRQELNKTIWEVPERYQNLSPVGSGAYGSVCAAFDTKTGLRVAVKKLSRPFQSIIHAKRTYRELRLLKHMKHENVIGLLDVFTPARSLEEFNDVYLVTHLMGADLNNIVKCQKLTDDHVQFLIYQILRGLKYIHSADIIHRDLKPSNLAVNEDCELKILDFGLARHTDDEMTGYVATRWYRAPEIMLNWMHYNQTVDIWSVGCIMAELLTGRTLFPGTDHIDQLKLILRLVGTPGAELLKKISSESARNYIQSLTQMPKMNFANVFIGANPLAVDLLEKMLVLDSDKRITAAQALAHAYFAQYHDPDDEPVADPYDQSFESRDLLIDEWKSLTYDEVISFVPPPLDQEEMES

VEGFR2 Kinase = target: T9, VEGFR2 Kinase (Homo sapiens, UniProt P35968); experiment: CEREP kinase inhibition; format: biochemical
T9 construct: purchased Eurofins Cerep
T9 sequence (P35968 20-1356): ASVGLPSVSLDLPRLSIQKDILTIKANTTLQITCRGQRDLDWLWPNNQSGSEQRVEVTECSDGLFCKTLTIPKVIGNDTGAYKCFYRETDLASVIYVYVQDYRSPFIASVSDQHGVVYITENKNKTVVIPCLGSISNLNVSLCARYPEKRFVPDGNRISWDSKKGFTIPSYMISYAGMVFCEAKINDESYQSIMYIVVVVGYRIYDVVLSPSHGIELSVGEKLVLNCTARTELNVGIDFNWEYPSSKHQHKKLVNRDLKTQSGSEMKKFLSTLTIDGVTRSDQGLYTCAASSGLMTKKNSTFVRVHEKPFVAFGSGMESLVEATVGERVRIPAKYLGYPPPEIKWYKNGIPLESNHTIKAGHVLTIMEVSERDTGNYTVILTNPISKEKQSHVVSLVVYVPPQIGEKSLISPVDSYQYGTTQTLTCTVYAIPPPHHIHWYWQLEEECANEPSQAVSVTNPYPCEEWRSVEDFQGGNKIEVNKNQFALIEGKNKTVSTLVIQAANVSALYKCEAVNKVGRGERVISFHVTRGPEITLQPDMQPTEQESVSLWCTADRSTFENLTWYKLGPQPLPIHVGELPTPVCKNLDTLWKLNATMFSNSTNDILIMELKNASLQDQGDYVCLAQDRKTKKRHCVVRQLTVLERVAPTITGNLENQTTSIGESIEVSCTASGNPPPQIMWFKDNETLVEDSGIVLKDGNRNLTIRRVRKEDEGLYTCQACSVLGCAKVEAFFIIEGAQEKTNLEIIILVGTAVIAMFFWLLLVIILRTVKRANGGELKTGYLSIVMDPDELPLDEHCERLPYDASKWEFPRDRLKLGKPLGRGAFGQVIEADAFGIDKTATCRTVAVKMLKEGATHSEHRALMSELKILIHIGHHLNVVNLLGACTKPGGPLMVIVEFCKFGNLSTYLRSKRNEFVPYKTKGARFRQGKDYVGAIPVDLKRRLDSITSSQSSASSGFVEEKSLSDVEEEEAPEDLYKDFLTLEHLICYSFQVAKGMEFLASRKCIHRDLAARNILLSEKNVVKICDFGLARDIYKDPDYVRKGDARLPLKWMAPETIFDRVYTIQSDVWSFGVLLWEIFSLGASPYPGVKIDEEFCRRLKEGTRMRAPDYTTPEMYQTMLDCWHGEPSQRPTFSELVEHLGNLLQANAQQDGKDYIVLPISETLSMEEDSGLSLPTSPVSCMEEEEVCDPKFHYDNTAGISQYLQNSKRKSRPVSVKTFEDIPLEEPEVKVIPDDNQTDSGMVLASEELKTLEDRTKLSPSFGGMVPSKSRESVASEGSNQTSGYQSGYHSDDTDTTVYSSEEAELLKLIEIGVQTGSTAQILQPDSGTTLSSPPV

Dopamine Transporter = target: T10, Dopamine Transporter (Homo sapiens, UniProt Q01959); experiment: CEREP transporters-binding
T10 construct: purchased Eurofins Cerep
T10 sequence (Q01959 whole entry): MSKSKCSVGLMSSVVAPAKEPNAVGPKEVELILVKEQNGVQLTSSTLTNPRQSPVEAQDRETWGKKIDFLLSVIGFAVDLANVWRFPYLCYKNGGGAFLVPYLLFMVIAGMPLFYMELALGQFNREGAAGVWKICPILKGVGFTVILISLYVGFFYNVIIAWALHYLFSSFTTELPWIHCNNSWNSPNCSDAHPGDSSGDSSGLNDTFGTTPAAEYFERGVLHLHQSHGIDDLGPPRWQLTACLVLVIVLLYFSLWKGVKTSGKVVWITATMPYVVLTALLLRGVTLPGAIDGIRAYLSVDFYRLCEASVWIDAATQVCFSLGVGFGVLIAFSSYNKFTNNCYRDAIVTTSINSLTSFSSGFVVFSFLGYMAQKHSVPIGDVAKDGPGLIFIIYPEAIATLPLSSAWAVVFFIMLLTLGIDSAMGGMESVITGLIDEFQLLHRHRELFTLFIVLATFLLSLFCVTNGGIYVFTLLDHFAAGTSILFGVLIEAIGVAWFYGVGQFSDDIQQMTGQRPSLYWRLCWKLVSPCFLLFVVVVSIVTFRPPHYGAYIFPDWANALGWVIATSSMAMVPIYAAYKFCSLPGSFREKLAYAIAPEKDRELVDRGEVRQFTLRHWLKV

AMPA Receptor = experiment: CEREP ion channel-binding; settings: 30 µM
NMDA Receptor (PCP site) = experiment: CEREP ion channel-binding; settings: 30 µM
[2] = tested on: Nicotinic Ach Receptor (Neuronal); experiment: CEREP ion channel-binding; settings: 30 µM
in vitro = settings: African green monkey, Mean CC50, n=3
CYP2C8 = CYP2C8 (Homo sapiens, UniProt P10632); experiment: biochemical
Sequence of CYP2C8 (P10632 whole entry): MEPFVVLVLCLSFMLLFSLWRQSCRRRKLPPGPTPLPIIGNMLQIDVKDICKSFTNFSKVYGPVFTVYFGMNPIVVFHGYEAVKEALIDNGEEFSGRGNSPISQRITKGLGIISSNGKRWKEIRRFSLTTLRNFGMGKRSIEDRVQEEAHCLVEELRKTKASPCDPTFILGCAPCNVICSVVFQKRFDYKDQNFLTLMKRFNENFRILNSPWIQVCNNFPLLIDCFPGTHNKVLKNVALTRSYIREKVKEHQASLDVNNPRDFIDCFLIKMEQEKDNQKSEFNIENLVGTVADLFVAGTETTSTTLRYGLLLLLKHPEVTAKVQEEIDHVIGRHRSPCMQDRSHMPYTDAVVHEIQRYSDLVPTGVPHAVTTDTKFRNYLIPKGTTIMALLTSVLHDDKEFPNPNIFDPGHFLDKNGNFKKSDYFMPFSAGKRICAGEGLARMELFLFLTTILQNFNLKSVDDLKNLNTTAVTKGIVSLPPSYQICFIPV

[3] = plasma, Male Beagle Dog, 0.5 mg/kg iv, solution, mean n=2
[4] = plasma, Male Beagle Dog, 3.0 mg/kg po, suspension, mean n=2

SMILES: Cc1ccc(N2CCN(C)CC2)cc1C(=O)NC1(c2cc(-c3cnn(C)c3)nc3ccccc23)CC1 [Compound 4]
- logD (LogD): 2.5
- Oral F (Dog pharmacokinetics; Male Beagle Dog, 3.0 mg/kg po, suspension, mean n=2): 41.0%
- Vd (Dog pharmacokinetics; male, Beagle, plasma, 0.5 mg/kg, dog (d), intravenous): 1.59 L/kg
- bioavailability (Dog pharmacokinetics; male, Beagle, plasma, po, 3 mg/kg, dog (d), read-out: Oral F (%)): 41%
- AUC(0-inf) (Dog pharmacokinetics; [3]): 640 ng·h/mL
- half-life (Dog pharmacokinetics; [3]): 124 min
- clearance (Dog pharmacokinetics; plasma, Male Beagle Dog, 0.5 mg/kg iv, solution, mean n=2, read-out: CLp): 13.4 mL/min/kg
- Vd (Dog pharmacokinetics; [3]): 1.59 L/kg
- AUC(0-inf) (Dog pharmacokinetics; [4]): 1580 ng·h/mL
- Cmax (Dog pharmacokinetics; [4]): 354 ng/mL
- Tmax (Dog pharmacokinetics; [4]): 1 h
- half-life (Dog pharmacokinetics; [4]): 151 min
- Ki (hCoV-229E_PLpro2): > 10 µM
- activity on 229E PL^pro (hCoV-229E_PLpro2): nearly inactive
- Ki (MERS_Plpro): > 10 µM
- activity on MERS PL^pro (MERS_Plpro): nearly inactive
- IC50 (Human Cathepsin S): > 100 µM
- IC50 (Human Cathepsin F): > 100 µM
- IC50 [1]: > 100 µM
- IC50 (Human Elastase): > 100 µM
- inhibition at 30 µM (Acetylcholinesterase): 17%
- inhibition at 30 µM (Abl Kinase): 2%
- inhibition at 30 µM (Aurora A Kinase): -1%
- inhibition at 30 µM (EGFR Kinase): 9%
- inhibition at 30 µM (P38 MAP Kinase): 10%
- inhibition at 30 µM (VEGFR2 Kinase): 11%
- inhibition at 30 µM (Dopamine Transporter): 8%
- % inhibition (AMPA Receptor): 13%
- % inhibition (NMDA Receptor (PCP site)): 14%
- % inhibition [2]: -6%
- CC50 (in vitro): 69.3 µM
- IC50 (CYP2C8): 76.1 µM
